Results published in ChEMBL document CHEMBL4371028, “Designing de Novo Small Molecules That Control Heat Shock Protein 70 (Hsp70) and Heat Shock Organizing Protein (HOP) within the Chaperone Protein-Folding Machinery” (J Med Chem, 2019).
Calls of active or inactive are those of the source. The calls are words filed in the database; no cut-off is given here. Peptide text beside a SMILES is read from it. * marks the point of attachment. Biotin = O=C1N[C@H]2[C@H](CS[C@H]2CCCCC(=O)*)N1; PEG4 = NCCOCCOCCOCCOCCC(=O)O

How the values were obtained:
[1] = target: Stress-induced-phosphoprotein 1 (Homo sapiens) (UniProt P31948); test: Inhibition of (2S,8S,11S,14S)-2-(4-aminobutyl)-14-(3-guanidinopropyl)-8-(4-hydroxybenzyl)-11-(hydroxymethyl)-4,7,10,13,16,32-hexaoxo-36-((3aS,4S,6aR)-2-oxohexahydro-1H-thieno[3,4-d]imidazol-4-yl)-19,22,25,28-tetraoxa-3,6,9,12,15,31-hexaazahexatriacontan-1-oic acid binding to His-tagged human HOP expressed in Escherichia coli up to 200 uM by Western blot analysis
[2] = target: Heat shock protein HSP90 (Homo sapiens) (UniProt P07900+P08238); test: Binding affinity to Hsp90 (unknown origin) at 10 to 200 uM after 1 hr by Western blot analysis based pull down assay; type: protein assay
[3] = species: Homo sapiens; test: Binding affinity to human recombinant Hsp70 expressed in Escherichia coli at 10 to 200 uM in presence of 1% Triton-X-100 after 1 hr by Western blot analysis based pull down assay
[4] = species: Homo sapiens; test: Binding affinity to human recombinant Hsp70 expressed in Escherichia coli in presence of 1% Triton-X-100 after 1 hr by Western blot analysis based pull down assay

Chain of Stress-induced-phosphoprotein 1 (Homo sapiens) (P31948 whole entry, looked up): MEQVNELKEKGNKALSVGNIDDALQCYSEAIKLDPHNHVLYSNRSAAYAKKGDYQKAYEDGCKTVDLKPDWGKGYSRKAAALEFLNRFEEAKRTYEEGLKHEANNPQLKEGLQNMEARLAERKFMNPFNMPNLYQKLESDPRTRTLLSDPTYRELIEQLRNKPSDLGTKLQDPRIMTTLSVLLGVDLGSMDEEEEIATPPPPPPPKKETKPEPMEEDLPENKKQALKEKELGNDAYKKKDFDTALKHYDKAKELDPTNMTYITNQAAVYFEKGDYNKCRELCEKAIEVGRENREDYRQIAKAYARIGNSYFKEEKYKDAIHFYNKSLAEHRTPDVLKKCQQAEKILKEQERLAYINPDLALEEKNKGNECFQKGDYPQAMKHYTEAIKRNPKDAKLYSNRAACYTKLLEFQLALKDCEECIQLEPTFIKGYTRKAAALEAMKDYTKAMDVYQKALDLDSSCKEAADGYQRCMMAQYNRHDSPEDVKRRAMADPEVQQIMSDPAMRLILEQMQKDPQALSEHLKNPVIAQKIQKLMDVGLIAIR

| inhibition [1] | Activity [2] | Activity [3] | Activity [4] | SMILES |
| --- | --- | --- | --- | --- |
| Active |  |  |  | N=C(N)NCCC[C@H](NC(=O)[C@H](CO)NC(=O)[C@H](Cc1ccc(O)cc1)NC(=O)CNC(=O)[C@@H](N)CCCCN)C(=O)O (H-KGYSR-OH) |
|  | inactive | inactive |  | CC(C)C[C@H](NC(=O)[C@H](C)NC(=O)[C@H](C)NC(=O)CCOCCOCCOCCOCCNC(=O)CCCC[C@@H]1SC[C@@H]2NC(=O)N[C@@H]21)C(=O)N[C@@H](CCC(=O)O)C(=O)N[C@@H](Cc1ccccc1)C(=O)O ({Biotin-PEG4}-AALEF-OH) |
|  | inactive |  | Dose-dependent effect | N=C(N)NCCC[C@H](NC(=O)[C@H](CO)NC(=O)[C@H](Cc1ccc(O)cc1)NC(=O)CNC(=O)[C@H](CCCCN)NC(=O)CCOCCOCCOCCOCCNC(=O)CCCC[C@@H]1SC[C@@H]2NC(=O)N[C@@H]21)C(=O)O ({Biotin-PEG4}-KGYSR-OH) |
